Source: patent publication US8372823B2, “Tetracyclic inhibitors of fatty acid amide hydrolase” (The Scripps Research Institute, priority 2007, dated 2013)
pIC50, pKi: −log10 of the molar value.

Assays:
[1] = CREAE mice, model of multiple sclerosis; cited from earlier work
[2] = rats; cited from earlier work
[3] = rats; cited from earlier work; remark: listed apart in the source
FAAH [4] = target: T1, FAAH (Homo sapiens, UniProt O00519); test: FAAH enzyme assay, Ki (Dixon plot), human FAAH; assay type: biochemical; set-up: expressed in transfected cells; host or cells: COS-7 (transient transfection), solubilized membrane extracts; conditions: solubilized COS-7 membrane extracts, human FAAH cDNA; 14C-oleamide hydrolysis; pH 9.0; 20-23° C.
T1 sequence (O00519 1-579): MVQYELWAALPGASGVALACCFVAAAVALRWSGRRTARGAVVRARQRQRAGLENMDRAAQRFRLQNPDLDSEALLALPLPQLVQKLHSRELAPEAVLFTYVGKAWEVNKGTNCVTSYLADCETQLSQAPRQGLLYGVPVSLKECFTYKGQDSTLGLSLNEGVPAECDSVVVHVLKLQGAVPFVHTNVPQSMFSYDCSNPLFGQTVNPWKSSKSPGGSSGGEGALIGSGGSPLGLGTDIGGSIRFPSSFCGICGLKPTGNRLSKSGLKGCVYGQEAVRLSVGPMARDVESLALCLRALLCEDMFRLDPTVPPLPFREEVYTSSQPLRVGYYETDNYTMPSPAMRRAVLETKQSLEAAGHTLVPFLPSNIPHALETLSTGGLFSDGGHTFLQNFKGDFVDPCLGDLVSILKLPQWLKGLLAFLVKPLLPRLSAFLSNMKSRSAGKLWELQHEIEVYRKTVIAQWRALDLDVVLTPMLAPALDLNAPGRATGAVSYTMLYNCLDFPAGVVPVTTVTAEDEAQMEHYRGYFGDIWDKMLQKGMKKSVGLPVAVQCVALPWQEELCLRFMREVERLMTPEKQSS

[5] = target: T2, purified recombinant rat FAAH (Rattus norvegicus, UniProt P97612); test: FAAH enzyme assay, Ki (Dixon plot), rat FAAH; assay type: biochemical
T2 construct: made in house; host or cells: E. coli
T2 sequence (P97612 1-579): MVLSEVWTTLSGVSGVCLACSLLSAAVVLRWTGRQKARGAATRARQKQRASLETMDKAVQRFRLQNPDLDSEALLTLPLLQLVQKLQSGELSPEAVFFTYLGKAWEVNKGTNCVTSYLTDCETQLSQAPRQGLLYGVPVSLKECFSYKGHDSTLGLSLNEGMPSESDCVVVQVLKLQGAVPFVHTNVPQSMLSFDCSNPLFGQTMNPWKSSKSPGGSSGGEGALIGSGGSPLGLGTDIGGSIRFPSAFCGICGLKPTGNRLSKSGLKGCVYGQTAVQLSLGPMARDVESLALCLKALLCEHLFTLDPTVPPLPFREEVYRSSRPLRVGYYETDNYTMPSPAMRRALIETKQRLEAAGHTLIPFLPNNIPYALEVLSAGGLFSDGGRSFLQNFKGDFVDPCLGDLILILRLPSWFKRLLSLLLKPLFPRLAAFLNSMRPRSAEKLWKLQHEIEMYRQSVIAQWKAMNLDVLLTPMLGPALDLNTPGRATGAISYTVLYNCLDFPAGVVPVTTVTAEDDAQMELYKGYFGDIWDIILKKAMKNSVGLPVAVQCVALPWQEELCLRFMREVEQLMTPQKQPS

FAAH [6] = target: T1, FAAH; test: FAAH inhibition IC50, human; assay type: biochemical; set-up: expressed in transfected cells; host or cells: COS-7 (transient transfection), solubilized membrane extracts; conditions: inhibition at 3-5 test compound concentrations
Procedure: (§1) Enzyme assays were performed at 20-23° C. with purified recombinant rat FAAH expressed in E. coli (Patricelli, M. P.; Lashuel, H. A.; et al. Biochemistry 1998, 37, 15177-15187) (unless indicated otherwise) or with solubilized COS-7 membrane extracts from cells transiently transfected with human FAAH cDNA (Giang, D. K.; Cravatt, B. F. Proc. Natl. Acad. Sci. U.S.A. 1997, 94, 2238-2242) (where specifically indicated) in a buffer of 125 mM Tris/1 mM EDTA/0.2% glycerol/0.02% Triton X-100/0.4 mM Hepes, pH 9.0 buffer (Patricelli, M. P.; Patterson, J. P.; et al. Bioorg. Med. Chem. Lett. 1998, 8, 613-618). […] NT=no data available.
(§2) IC50 values were determined from the inhibition observed at 3-5 different test compound concentrations (from three or more trials at each concentration) using the formula IC50=[I]/[K0/Ki)-1], where K0 is the control reaction rate without inhibitor and Ki is the rate with test compound at concentration [I] (Conde-Frieboes, K. et al. J. Am. Chem. Soc. 1996, 118, 5519-5525). NT=no data available.

rat FAAH = target: T3, rat FAAH (Rattus norvegicus, UniProt P97612); test: FAAH inhibition IC50, rat; assay type: biochemical; conditions: inhibition at 3-5 test compound concentrations
T3 construct: made in house; host or cells: E. coli
T3 sequence (P97612 1-579): T2 sequence (P97612 1-579)
Procedure: as §1, §2

[7] = rat; cited from earlier work
[8] = rats; cited from earlier work; remark: listed apart in the source
FAAH [9] = target: T1, FAAH; conditions: cited from earlier work
[10] = rat; cited from earlier work; remark: listed apart in the source
[11] = rats; cited from earlier work; remark: listed apart in the source
[12] = purified recombinant rat FAAH expressed in E. coli, 14C-oleamide hydrolysis, pH 9.0, 20-23° C.

SMILES | pKi [5, 12] | pIC50 (FAAH [6]) | pIC50 (rat FAAH) | further results
CCCCCCCCCCCCCCCCS(=O)(=O)F [AM374] | – | – | – | reduction of spasticity [1]: significantly reduce spasticity
Cc1nc(-c2ccccc2)c(-c2ccccc2)n1CCCCCCNC(=O)Oc1ccccc1F [BMS-1] | – | – | – | analgesic effect in Chung spinal nerve ligation model [2]: analgesic effect; analgesic effect in Hargraves test of acute thermal nociception [3]: analgesic effect
CCOC(=O)c1cccc(-c2cnc(C(=O)CCc3ccc(-c4ccccc4)cc3)o2)n1 [Example 22, 6-[2-(3-Biphenyl-4-yl-propionyl)-oxazol-5-yl]-pyridine-2-carboxylic acid ethyl ester] | 8.52 | 8.70 | 8.70 | –
O=C(O)c1cccc(-c2cnc(C(=O)CCc3ccc(-c4ccccc4)cc3)o2)n1 [Example 24, 6-[2-(3-Biphenyl-4-yl-propionyl)-oxazol-5-yl]-pyridine-2-carboxylic acid] | 7.66 | 8.70 | 9.22 | –
O=C(O)c1ccc(-c2cnc(C(=O)CCc3ccc(-c4ccccc4)cc3)o2)nc1 [Example 25, 6-[2-(3-Biphenyl-4-yl-propionyl)-oxazol-5-yl]-nicotinic acid] | – | 9.30 | 9.52 | pKi ([5]; pH 9): 7.85
O=C(O)c1cc(-c2cnc(C(=O)CCc3ccc(-c4ccccc4)cc3)o2)ccn1 [Example 29, 4-[2-(3-Biphenyl-4-yl-propionyl)-oxazol-5-yl]-pyridine-2-carboxylic acid] | 7.30 | 8.15 | 8.52 | –
O=C(O)c1ccc(-c2cnc(C(=O)CCc3ccc(-c4ccccc4)cc3)o2)cn1 [Example 33, 5-[2-(3-Biphenyl-4-yl-propionyl)-oxazol-5-yl]-pyridine-2-carboxylic acid] | 7.36 | 6.24 | 7.36 | –
COC(=O)c1cccc(-c2cnc(C(=O)CCc3ccc(-c4ccc(CN5CCOCC5)cc4)cc3)o2)n1 [Example 35, 6-{2-[3-(4′-Morpholin-4-ylmethyl-biphenyl-4-yl)-propionyl]-oxazol-5-yl}-pyridine-2-carboxylic acid methyl ester] | 7.51 | 7.68 | 8.70 | –
O=C(O)c1cccc(-c2cnc(C(=O)CCc3ccc(-c4ccc(CN5CCOCC5)cc4)cc3)o2)n1 [Example 41, 6-{2-[3-(4′-Morpholin-4-ylmethyl-biphenyl-4-yl)-propionyl]-oxazol-5-yl}-pyridine-2-carboxylic acid] | 6.82 | 8.05 | 8.52 | –
O=C(CCc1ccc(-c2ccccc2)cc1)c1ncc(-c2cccc(-c3nnn[nH]3)n2)o1 [Example 46, 3-Biphenyl-4-yl-1-{5-[6-(1H-tetrazol-5-yl)-pyridin-2-yl]-oxazol-2-yl}-propan-1-one] | 7.57 | 7.08 | 8.05 | –
O=C(CCCCCCc1ccccc1)c1ncc(-c2ccccn2)o1 [OL-135] | – | – | – | analgesic activity in hot plate test [7]: analgesic activity; analgesic activity in tail emersion test [8]: analgesic activity; inhibition of FAAH (FAAH [9]): potent inhibitor
NC(=O)c1cccc(-c2cccc(OC(=O)NC3CCCCC3)c2)c1 [URB-597] | – | – | – | analgesic activity in hot plate test [7]: analgesic efficacy; analgesic efficacy in formalin test [10]: analgesic efficacy; efficacy in zero plus maze model of anxiety [11]: efficacy

The remaining compounds from weak to strong by pKi [5, 12], led by results:

pKi [5, 12] | pIC50 (FAAH [6]) | pIC50 (rat FAAH) | SMILES | further results
8.64 | 7.80 | 8.52 | O=C(CCc1ccc(-c2ccccc2)cc1)c1ncc(-c2ccncc2)o1 [Example 30, 3-Biphenyl-4-yl-1-(5-pyridin-4-yl-oxazol-2-yl)-propan-1-one] | –
8.66 | 8.30 | 8.10 | COC(=O)c1ccc(-c2cnc(C(=O)CCc3ccc(-c4ccccc4)cc3)o2)nc1 [Example 23, 6-[2-(3-Biphenyl-4-yl-propionyl)-oxazol-5-yl]-nicotinic acid methyl ester] | –
8.80 | 7.54 | 8.82 | COC(=O)c1cc(-c2cnc(C(=O)CCc3ccc(-c4ccccc4)cc3)o2)ccn1 [Example 28, 4-[2-(3-Biphenyl-4-yl-propionyl)-oxazol-5-yl]-pyridine-2-carboxylic acid methyl ester] | –
8.82 | 9.40 | 9.30 | NC(=O)c1ccc(-c2cnc(C(=O)CCc3ccc(-c4ccccc4)cc3)o2)nc1 [Example 27, 6-[2-(3-Biphenyl-4-yl-propionyl)-oxazol-5-yl]-nicotinamide] | –
8.89 | – | – | O=C(CCc1ccc(OCc2ccccc2)cc1)c1ncc(-c2ccccn2)o1 [Example 11a, 1-Oxo-1-[5-(2-pyridyl)oxazol-2-yl]-3-(4-(benzyloxy)phenyl)propane] | melting point: 99 to 100 °C; pKi (FAAH [4]): 9.35
8.92 | 8.52 | 9.30 | COC(=O)c1cccc(-c2cnc(C(=O)CCc3ccc(-c4ccccc4)cc3)o2)n1 [Example 21, 6-[2-(3-Biphenyl-4-yl-propionyl)-oxazol-5-yl]-pyridine-2-carboxylic acid methyl ester] | pKi (FAAH [4]): 8.92
8.92 | 8.70 | 9.30 | NC(=O)c1cccc(-c2cnc(C(=O)CCc3ccc(-c4ccccc4)cc3)o2)n1 [Example 26, 6-[2-(3-Biphenyl-4-yl-propionyl)-oxazol-5-yl]-pyridine-2-carboxylic acid amide] | –
8.96 | 7.66 | 8.70 | O=C(CCc1ccc(-c2ccccc2)cc1)c1ncc(-c2cccnc2)o1 [Example 31, 3-Biphenyl-4-yl-1-(5-pyridin-3-yl-oxazol-2-yl)-propan-1-one] | –
9.00 | – | – | O=C(CCc1ccc(COc2ccccc2)cc1)c1ncc(-c2ccccn2)o1 [Example 11e, 3-(4-(Phenoxymethyl)phenyl)-1-(5-(pyridin-2-yl)oxazol-2-yl)propan-1-one] | pKi (FAAH [4]): 8.30
9.22 | 6.30 | 7.77 | COC(=O)c1ccc(-c2cnc(C(=O)CCc3ccc(-c4ccccc4)cc3)o2)cn1 [Example 32, 5-[2-(3-Biphenyl-4-yl-propionyl)-oxazol-5-yl]pyridine-2-carboxylic acid methyl ester] | –
9.42 | – | – | O=C(CCc1ccc(OCc2ccccc2)cc1)c1nc2ncccc2o1 [Example 11k, 3-(4-(Benzyloxy)phenyl)-1-(oxazolo[4,5-b]pyridin-2-yl)propan-1-one] | pKi (FAAH [4]): 9.22
